Tests used:
[1] = biological target: T1, CBX7 ChD (Homo sapiens, UniProt O95931); type: binding; settings: control ligands on 24 DNA constructs each, relative to nonligand
T1 sequence (O95931 11-69 limits assumed): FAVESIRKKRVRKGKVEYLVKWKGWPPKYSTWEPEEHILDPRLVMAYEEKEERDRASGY

[2] = system: CBX7; settings: cited from earlier work

| Substance | enrichment in model selection against CBX7 (in words) [1] | selectivity to CBX7 over other CBX proteins and ChDs [2] | Kd ([2]; reported Kd for CBX7) [nM] |
| --- | --- | --- | --- |
| Ac-F-A-I-Kme3-S-140-mers [medium-affinity ligand] | moderately enriched | – | – |
| Bz-A-I-Kme3-S-140-mers [low-affinity ligand] | poorly enriched | – | – |
| UNC3866 | – | 6- to 18 fold | 97 |

— PMC5962403 (SLAS discovery : advancing life sciences R & D, 2018)
